{"source": "patent EP3431088A1", "about": "“MNTBAP FOR USE IN INDUCING A TRANSIENT IMMUNE TOLERANCE” (priority 2017, dated 2019)", "key": {"[1]": {"system": "splenic enriched CD4^+ T cells", "assay": "Cell viability by Fixable Viability Dye eFluor 780, flow cytometry", "format": "cell-based, murine", "conditions": "400 µM, 2 hours", "experimental": "(§1) After mechanic disruption of the spleen, erythrocytes are eliminated by hypotonic shock with ammonium chloride potassium (ACK) lysing buffer. Then CD4^+ T cells are isolated from spleen cell suspension by negative selection using a CD4^+ T cell isolation kit (Miltenyi Biotec, Paris, France) followed by auto-MACS (Miltenyi Biotec) magnetic sorting, according to the manufacturer's instructions. Purity of isolated CD4^+ T cells is usually > 95%. Cell suspensions are first incubated with anti-FcγRIII/II (Fc Block, 2.4G2, BD Biosciences, Le Pont de Claix, France) monoclonal antibodies (mAb) for 10 minutes at 4°C and then stained for 30 minutes at 4°C in PBS, 0.1% bovine serum albumin (BSA) with Fc Block present, using saturating amounts of rat anti-mouse CD4-Pacific Blue (RM4-5, BD Biosciences) mAb. Gates for CD4^+ populations are set according to isotype controls. Cell viability is determined by staining with 7-aminoactinomycin D (7-AAD; Sigma-Aldrich, St-Quentin-Fallavier, France) or Fixable Viability Dye eFluor 780 (eBiosciences, Paris, France). When indicated, samples are fixed with 1% paraformaldehyde. Samples are acquired on an LSR II flow cytometer (BD Biosciences) and data were analyzed with DIVA software (BD Biosciences)."}, "rAAV1 CMV mSeap vector": {"system": "rAAV1 CMV mSeap vector", "assay": "rAAV readministration in TA: mSeap expression and vector copy number", "format": "in vivo, C57BL/6 mice", "experimental": "(§2) MnTBAP (Calbiochem, San Diego, USA or Enzo Life Sciences, Farmingdale, USA) is dissolved in 75 mM NaOH to constitute a 20 mM stock solution. MnTBAP is dissolved in the complete medium, used for in vitro treatment, containing RPMI-1640 supplemented with 10% heat-inactivated fetal calf serum, 100 U/ml penicillin/streptomycin, 2 mM glutamax and 50 µM β-mercaptoethanol β-ME). Hypertonic medium, used to block clathrin dependent endocytosis, is complete medium supplemented with 0.45 M sucrose. For in vivo treatment, the stock solution is diluted with PBS and administered at 80 mg/kg intraperitoneally daily during five days. Control animals are injected with equivalent volume of PBS.\nReadministration protocol: After the initial IV injection of rAAV2/1 CMV SGCA HY vector at D0 (two hours post first IP injection of MnTBAP) the second rAAV1 injection (2.10^9 vg of rAAV2/1 CMV mSeAP) is performed 28 days later in the left TA muscle. Mice are followed up to 93 days after readministration to analyze capsid-specific humoral response and to measure circulating mSeAP from serum samples. Mice are killed 93 days after second injection of vector. […]\nGenomic DNA is extracted from frozen muscles using MagNA Pure 96 Instrument (Roche). […] Results are calculated from a standard curve based on dilutions of 2 plasmids containing either the Titin or CMV sequences. […]\nDetermination of alkaline phosphatase concentration in immunized mice sera is performed by chemoluminescence analyzis (C. Riviere et al., Gene therapy 13, 1300. 2006). Blood samples are centrifuged for 10 min at 8000 rpm to collect sera, endogenous alkaline phosphatase is heat inactivated for 5 min at 65°C and the heat-resistant mSeAP is measured by addition of the reaction buffer and CSPD® chemiluminescent substrate, according to the manufacturer's instructions (Tropix, Applied Biosystems, Forster City, USA). Chemiluminescence is quantified using a luminometer, Enspire (Perkin Elmer, Massachusetts, USA). Expression levels are expressed as ng of mSeAP per ml of serum using a standard curve of purified human placental alkaline phosphatase."}, "CD4": {"system": "CD4", "assay": "CD4 cell surface expression by flow cytometry", "format": "cell-based, murine", "experimental": "as §2, §1"}, "[2]": {"system": "lentiviral vectors pseudotyped with HIV-1 envelope protein (HXB2-env)", "assay": "Transduction of human CD3+ T cells by HXB2-env pseudotyped lentiviral vectors (GFP)", "format": "cell-based", "conditions": "400 µM, 72 hours post transduction, vs control", "experimental": "CD3^+ T cells, from peripheral blood of healthy individual donors, are purified by positive selection via MACS beads using a magnetic cell sorting system (Miltenyi Biotec). CD3^+ T cells are activated for 3 days at 37°C, 5% CO2 in plates coated with anti-CD3 (10 µg/ml) and anti-CD28 (10 µg/ml) antibodies (both from Miltenyi Biotec) and filled with RPMI 1640 medium supplemented with 10% heat-inactivated fetal calf serum, 100 U/ml penicillin/streptomycin, 2 mM glutamax, 100 IU/ml IL-2 (Miltenyi Biotec). Cells are then transferred on retronectin (20 µg/cm2) coated-plates, in the presence or absence of MnTBAP (400 µM), at a density of 2.5 x 10^5 cells/ml for transduction during 6 h with 6 x 10^7 physical particles (pp)/ml of HXB2-env pseudotyped lentiviral vectors expressing GFP reporter gene under the control of hPGK (human phosphoglycerate kinase 1). After transduction, cells are washed and further incubated for 72 h in fresh culture medium (RPMI 1640 medium supplemented as described above). Cells are then harvested for transduction efficiency analysis by FACS, determined as the percentage of viable (7AAD-) lymphoid cells expressing GFP^+. The data are normalized to be a percentage of the control value (none) from each experiment."}}, "data": [{"smiles": "O=C(O)c1ccc(-c2c3nc(c(-c4ccc(C(=O)O)cc4)c4ccc([n-]4)c(-c4ccc(C(=O)O)cc4)c4nc(c(-c5ccc(C(=O)O)cc5)c5ccc2[n-]5)C=C4)C=C3)cc1.[Mn+3]", "note": "[MnTBAP, manganese [III] tetrakis (4-benzoic acid) porphyrin]", "values": [{"measurement": "cell death (eFluor 780+ dead cells)", "setting": "[1]", "value": "doesn't result in more eFluor 780+ dead cells"}, {"measurement": "level of mSeap in the serum", "setting": "rAAV1 CMV mSeap vector; 93 days after vector readministration, vs control mice", "value": "significantly increased"}, {"measurement": "histochemical detection of mSeap in muscle", "setting": "rAAV1 CMV mSeap vector; injected TA harvested 93 days after vector readministration", "value": "detection of the reporter gene mSeap"}, {"measurement": "normalized copy number of the readministered rAAV", "setting": "rAAV1 CMV mSeap vector; injected TA, CMV PCR normalized to titin, vs control mice", "value": "significantly increased"}, {"measurement": "CD4 expression (CD4 GMFI)", "setting": "CD4; 2 hours after washing out MnTBAP (\"2 h removed\")", "value": "the decrease of CD4 expression is less important"}, {"measurement": "CD4 expression (CD4 GMFI)", "setting": "CD4; fixed cells, 400 µM, 2 hours (\"treated\") vs \"none\"", "value": "decrease of CD4 expression"}, {"measurement": "CD4 expression", "setting": "CD4; hypertonic conditions (RPMI + 0.45 M sucrose), 400 µM, 2 hours, treated vs non-treated", "value": "no significant difference of CD4 expression"}, {"measurement": "percentage of CD4 expression", "setting": "CD4; normal tonicity (RPMI), 400 µM, 2 hours, vs non-treated", "value": "decreased"}, {"measurement": "CD4 expression (CD4 GMFI)", "setting": "CD4; overnight after removing MnTBAP (\"O/N removed\")", "value": "further less accentuated"}, {"measurement": "CD4 at the cell surface of CD4 expressing cells", "setting": "CD4; splenic enriched CD4+ T cells, 400 µM, 2 hours, vs control", "value": "disappearance of CD4 at the cell surface"}, {"measurement": "CD4 expression", "setting": "CD4; viable murine splenic enriched CD4+ T cells, 2 hours, 400 µM", "value": "maximal decrease of CD4 expression"}, {"measurement": "CD4 expression", "setting": "CD4; viable murine splenic enriched CD4+ T cells, 2 hours, increasing doses 0, 100, 200, 400 µM", "value": "progressive decrease of CD4 expression"}, {"measurement": "transduction efficiency of human T cells (GFP^+ cells)", "setting": "[2]", "value": "significantly decreased"}]}]}
